Converted amounts (≈) assume the structure as drawn.
system: Leukämie-Zellinie L1210; assay: in vitro cytotoxicity test, growth inhibition of cultured leukaemia cell line L1210; type: cell-based, Mäuse; conditions: Mus musculus, 72 h; L1210 cells, 3-day incubation, cell count, by interpolation; read-out: ID₅₀ (50 % Hemmwirkdosis)
Method: Die Saframycin-Derivate der vorliegenden Erfindungen zeigen insbesondere in vitro Zytotoxizität gegenüber Zellkulturen von Mäuse-Leukämie-Zellen L 1210 (NCI). Für die geprüften Verbindungen werden ID₅₀-Werte im Bereich von 0,1 bis 0,001 µg/ml gefunden.
Die Wirksamkeit gegen Tumoren in vitro wird mit einer kultivierten Leukämie-Zellinie L1210 (K. Kishi et al., J. Antibiot. 37, 847 (1984)) bestimmt. Die Zellen werden in Eagle's minimum essential medium (Nissui Seiyaku Co. Ltd., Tokyo) enthaltend 10 % fötales Kälberserum (Gibco Laboratories) in Suspension-Kultur gehalten. Die Zellen werden bei einer Konzentration von 3x10⁴ Zellen/ml in 24-Loch-Mikrotiterplatten (Costar) suspendiert und bei 37° in einer feuchten Atmosphäre enthaltend 5 % CO₂ in Luft 24 Stunden lang kultiviert, um exponentielles Wachstum auszulösen. Diese Kulturen werden mit einer Reihe von jeweils um den Faktor 10 verdünnten Proben Saframycin-Derivaten dieser Erfindung versetzt. Die Konzentration der Zellen wird nach 3-tägiger Inkubation durch elektrische Zählung mit einem Sysmex CC-130 Mikro-Zellzählgerät (Toa Electronics Ltd., Tokyo) bestimmt. Die Wachstumshemmung (Inhibierung I) in Prozent wird für jede Dosismenge nach der Formel I=(C3-T3)/(C3-C0)x100, worin T3 die Zellkonzentration in den Vertiefungen der Mikrotiterplatte bei einer gegebenen Verdünnung des Wirkstoffs nach 3-tägiger Inkubation, C3 die Zellkonzentration in der entsprechenden Kontroll-Inkubation und C0 die Zellkonzentration in den Vertiefungen vor der 3-tägigen Inkubation bedeuten, berechnet. ID₅₀ (50 % Hemmwirkdosis) wird durch Interpolierung bestimmt.

Row | SMILES | IC50
1 | CCCCCCCCCC(=O)N[C@@H](C)C(=O)NCC1C2=C(CC3C4C5=C(CC(C(C#N)N13)N4C)C(=O)C(C)=C(OC)C5=O)C(=O)C(C)=C(OC)C2=O (stereo partly drawn) [N-n-Decanoyl-Saframycin Y₃] | 0.11 µg/mL (≈ 0.153 µM)
2 | COC1=C(C)C(=O)C2=C(C1=O)C1C3CC4=C(C(=O)C(OC)=C(C)C4=O)C(CNC(=O)[C@H](C)NC(=O)C(C)(C)C)N3C(C#N)C(C2)N1C (stereo partly drawn) [N-Pivaloyl-Saframycin Y₃] | 0.01 µg/mL (≈ 0.0154 µM)
3 | COC1=C(C)C(=O)C2=C(C1=O)C1C3CC4=C(C(=O)C(OC)=C(C)C4=O)C(CNC(=O)[C@H](C)NC(=O)Nc4ccccc4)N3C(C#N)C(C2)N1C (stereo partly drawn) [N-Phenylcarbamoyl-Saframycin Y₃] | 0.04 µg/mL (≈ 0.0586 µM)
4 | COC1=C(C)C(=O)C2=C(C1=O)C1C3CC4=C(C(=O)C(OC)=C(C)C4=O)C(CNC(=O)[C@H](C)NC(=S)Nc4ccccc4)N3C(C#N)C(C2)N1C (stereo partly drawn) [N-Phenylthiocarbamoyl-Saframycin Y₃] | 0.1 µg/mL (≈ 0.143 µM)
5 | COC1=C(C)C(=O)C2=C(C1=O)C1C3CC4=C(C(=O)C(OC)=C(C)C4=O)C(CNC(=O)[C@H](C)NC(=O)c4ccc(Br)cc4)N3C(C#N)C(C2)N1C (stereo partly drawn) [N-p-Brombenzyol-Saframycin Y₃, N-p-Brombenzoyl-Saframycin Y₃] | 0.01 µg/mL (≈ 0.0134 µM)
6 | CCCN(CCC)[C@@H](C)C(=O)NCC1C2=C(CC3C4C5=C(CC(C(C#N)N13)N4C)C(=O)C(C)=C(OC)C5=O)C(=O)C(C)=C(OC)C2=O (stereo partly drawn) [N,N-Dipropyl-Saframycin Y₃, N,N-Di-n-propyl-Saframycin Y₃] | 0.0015 µg/mL (≈ 0.00232 µM)
7 | CCCCCC(=O)N[C@@H](C)C(=O)NCC1C2=C(CC3C4C5=C(CC(C(C#N)N13)N4C)C(=O)C(C)=C(OC)C5=O)C(=O)C(C)=C(OC)C2=O (stereo partly drawn) [N-n-Hexanoyl-Saframycin Y₃] | 0.0075 µg/mL (≈ 0.0113 µM)
8 | COC1=C(C)C(=O)C2=C(C1=O)C1C3CC4=C(C(=O)C(OC)=C(C)C4=O)C(CNC(=O)[C@H](C)NCc4ccc([N+](=O)[O-])cc4)N3C(C#N)C(C2)N1C (stereo partly drawn) [N-p-Nitrobenzyl-Saframycin Y₃] | 0.0015 µg/mL (≈ 0.00215 µM)
9 | COC1=C(C)C(=O)C2=C(C1=O)C1C3CC4=C(C(=O)C(OC)=C(C)C4=O)C(CNC(=O)[C@H](C)NC(C)C)N3C(C#N)C(C2)N1C (stereo partly drawn) [N-Isopropyl-Saframycin Y₃] | 0.0018 µg/mL (≈ 0.00297 µM)
10 | COC1=C(C)C(=O)C2=C(C1=O)C1C3CC4=C(C(=O)C(OC)=C(C)C4=O)C(CNC(=O)[C@H](C)NC(=O)Nc4cccc5ccccc45)N3C(C#N)C(C2)N1C (stereo partly drawn) [N-α-Naphthylcarbamoyl-Saframycin Y₃] | 0.08 µg/mL (≈ 0.109 µM)
11 | CCCCN(CCCC)[C@@H](C)C(=O)NCC1C2=C(CC3C4C5=C(CC(C(C#N)N13)N4C)C(=O)C(C)=C(OC)C5=O)C(=O)C(C)=C(OC)C2=O (stereo partly drawn) [N,N-Dibutyl-Saframycin Y₃, N,N-Di-n-butyl-Saframycin Y₃] | 0.08 µg/mL (≈ 0.118 µM)
12 | CCCCCCCCCCCCCCCC(=O)N[C@@H](C)C(=O)NCC1C2=C(CC3C4C5=C(CC(C(C#N)N13)N4C)C(=O)C(C)=C(OC)C5=O)C(=O)C(C)=C(OC)C2=O (stereo partly drawn) [N-n-Hexadecanoyl-Saframycin Y₃] | 0.03 µg/mL (≈ 0.0374 µM)
13 | CCC(=O)N[C@@H](C)C(=O)NCC1C2=C(CC3C4C5=C(CC(C(C#N)N13)N4C)C(=O)C(C)=C(OC)C5=O)C(=O)C(C)=C(OC)C2=O (stereo partly drawn) [N-Propionyl-Saframycin Y₃] | 0.02 µg/mL (≈ 0.0323 µM)
14 | CCN(CC)[C@@H](C)C(=O)NCC1C2=C(CC3C4C5=C(CC(C(C#N)N13)N4C)C(=O)C(C)=C(OC)C5=O)C(=O)C(C)=C(OC)C2=O (stereo partly drawn) [N,N-Diäthyl-Saframycin Y₃] | 0.0035 µg/mL (≈ 0.00565 µM)
15 | CCCCCCCC(=O)N[C@@H](C)C(=O)NCC1C2=C(CC3C4C5=C(CC(C(C#N)N13)N4C)C(=O)C(C)=C(OC)C5=O)C(=O)C(C)=C(OC)C2=O (stereo partly drawn) [N-n-Octanoyl-Saframycin Y₃] | 0.11 µg/mL (≈ 0.159 µM)

From patent publication EP0233841A1, “Quinone derivatives and process for their preparation” (Arai, Tadashi, Prof., priority 1986, dated 1987)
